{
  "source": "paper PMC4818757",
  "about": "“Small molecule inhibitors of the Dishevelled‐CXXC5 interaction are new drug candidates for bone anabolic osteoporosis therapy” (EMBO Molecular Medicine, 2016)",
  "key": {"[1]": {"experiment": "Metabolic stability, rat liver microsomes", "assay_type": "in vitro ADME"}, "[2]": {"experiment": "Metabolic stability, human hepatocytes", "assay_type": "in vitro ADME"}, "Dvl–CXXC5 interaction": {"molecular_target": "T1, Dvl–CXXC5 interaction (Homo sapiens, UniProt O14640)", "T1 construct": "plasmid DNA encoding Dvl-1247- 341 (the Dvl PDZ domain); His-tag (TEV-cleavable) (cleaved yes); made in house; host or cells: E. coli BL21 (DE3)", "T1 sequence (O14640 247-341 limits assumed)": "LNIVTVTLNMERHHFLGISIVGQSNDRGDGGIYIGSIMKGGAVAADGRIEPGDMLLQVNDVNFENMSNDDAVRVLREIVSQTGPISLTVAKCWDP", "experiment": "Dvl–CXXC5 in vitro binding assay (FITC PolyR-DBM competition)", "excerpt": "We tried to search small‐molecule drug candidates activating the Wnt/β‐catenin signaling on the basis of the previous study (Kim et al, 2015). To screen small molecules inhibiting the Dvl–CXXC5 interaction, an in vitro assay system (Fig 1A) was established using purified recombinant Dvl PDZ domain and FITC‐conjugated PolyR‐DBM (Dvl binding motif) (Kim et al, 2015). A chemical with inhibitory activity of Dvl–CXXC5 interaction competes with the FITC‐conjugated peptide for binding to Dvl PDZ domain, which results in a decrease in fluorescence intensity of the well containing the chemical (Fig 1A).\nFigure 1 Identification and characterization of small molecules competing Dvl–CXXC5 binding in vitro • A A scheme for in vitro screening method of small molecules competing Dvl–CXXC5 binding. Briefly, purified Dvl PDZ domain was attached to the polystyrene surface of each well of 96‐well plates. Then, PolyR‐DBM (polyarginine‐conjugated Dvl binding motif tagged with FITC) (Kim et al, 2015) was added to each well and allowed to bind to the Dvl PDZ domain; 10 μM small‐molecule compound was added to each well, and the compounds competing with Dvl PZD‐PolyR‐DBM binding were measured by a microplate reader to screen the compounds reducing fluorescence signal. • B Screening results of compounds competing Dvl–CXXC5 interaction. Each 2 μM of the compounds was used for competing as described in Fig 1A. (n = 3) • C, D Primary calvaria cells were treated with 2 μM of each compound for 2 days. The cells were subjected to immunofluorescence analyses to visualize β‐catenin (C; green). The relative numbers of β‐catenin‐positive nuclei were counted (D). (n = 3) • E, F The calvariae from 4‐day‐old mice were cultured ex vivo for 7 days with 2 μM of each compound. Representative calvaria sections were visualized by H&E staining (E). The calvaria thicknesses were measured from the images using Image Pro software (F). (n = 3) Data Information: For B, D, and F, the data are the mean ± s.d. (error bars), and significance was assessed using unpaired Student's t‐test.\nFor the Dvl–CXXC5 in vitro binding assay, 100 μl of 5 mg/ml purified Dvl PDZ domain was added into each well of a 96‐well Maxibinding Immunoplate (SPL, Seoul, Korea) and incubated overnight in a 4°C chamber. […] After washing with PBS, the fluorescence of each well was measured using a Fluorstar Optima microplate reader (BGM Lab Technologie, Ortenberg, Germany). […]\na The Dvl-CXXC5 in vitro binding assay was performed with 0.1, 1, 3, 10, 30 and 100 µ M of each compound. The IC50 values were calculated using linear regression. b MC3T3E1 cells were cultured in differentiation media with 10 µM of each compound for 4 days and ALP activity levels were quantified to monitor osteogenic differentiation of the cells. […]"}, "Dvl PDZ domain": {"molecular_target": "T2, Dvl PDZ domain (Homo sapiens, UniProt O14640)", "T2 construct": "plasmid DNA encoding Dvl-1247- 341 (the Dvl PDZ domain); His-tag (TEV-cleavable) (cleaved yes); made in house; host or cells: E. coli BL21 (DE3)", "T2 sequence (O14640 247-341 limits assumed)": "T1 sequence (O14640 247-341 limits assumed)", "experiment": "Fluorescence quenching of Dvl PDZ domain", "settings": "read-out: binding affinity between Dvl PDZ domain and compound", "description": "Figure 4 Binding of KY‐02327, a KY‐02061 analog, on Dvl PDZ domain • A The chemical structure of KY‐02327. • B A competition curve for the Dvl–CXXC5 interaction by KY‐02327. • C Fluorescence quenching plot of Dvl PDZ domain upon addition of different amounts of KY‐02327. From top to bottom, final molar ratio between Dvl PDZ and KY‐02327 was 1:0, 1:1, 1:2, 1:3, 1:4, 1:5, 1:6, 1:7, 1:8, 1:9, 1:10, 1:15, 1:20, and 1:25, respectively. • D–F ^1H‐^15N‐HSQC analyses were performed to analyze the interaction of ^15N‐labeled Dvl PDZ domain with KY‐02327. […] Plot of chemical shift changes (Δδ) as a function of residue number in molecular ratio 1:20 (E, a red‐colored line indicates the line for Δδ = 0.05). The residues with Δδ greater than 0.05 are visualized as a stick model on the ribbon representation of the Dvl PDZ domain structure (F). • G Molecular docking of KY‐02061 or KY‐02327 to Dvl PDZ domain was analyzed by in silico experiments. The superimposed structure of KY‐02061 (yellow) and KY‐02327 (cyan) on the surface of Dvl PDZ domain (gray) was visualized."}},
  "note": "Like-named read-outs stand apart in the source and are kept apart here.",
  "data": [
    {"smiles": "CCOC(=O)c1cc2cc(O)ccc2n1CC(=O)NCCN1CCCCC1", "note": "[KY‐02327]", "values": [
      {"measurement": "Metabolic Stability (%) Rat", "setting": "[1]", "value": 11.9, "unit": "%"},
      {"measurement": "stability, fold more stable than KY‐02061", "setting": "[1]", "value": 2.3, "unit": "fold"},
      {"measurement": "stability, fold more stable than KY‐02061", "setting": "[2]", "value": 1.3, "unit": "fold"},
      {"measurement": "IC50", "setting": "Dvl–CXXC5 interaction; 0.1, 1, 3, 10, 30 and 100 µM of each compound, linear regression, read-out: Dvl-CXXC5 in vitro binding IC50", "value": 3.1, "unit": "µM"},
      {"measurement": "IC50 for inhibition of Dvl–CXXC5 interaction, fold lower than for KY‐02061", "setting": "Dvl–CXXC5 interaction; vs KY‐02061", "value": 7.7, "unit": "fold"},
      {"measurement": "Kd", "setting": "Dvl PDZ domain", "value": "8.31 ± 0.8", "unit": "µM"}
    ]},
    {"smiles": "CCOC(=O)Cn1c(C(=O)OCC)cc2cc(OS(=O)(=O)c3ccc(C)cc3)ccc21", "note": "[KY‐02061]", "values": [
      {"measurement": "Metabolic Stability (%) Rat", "setting": "[1]", "value": "5.1 ± 2.4", "unit": "%"},
      {"measurement": "metabolic stability (in words)", "setting": "[1]", "value": "poor metabolic stability"},
      {"measurement": "Metabolic Stability (%) Human", "setting": "[2]", "value": "25.2 ± 3", "unit": "%"},
      {"measurement": "metabolic stability (in words)", "setting": "[2]", "value": "poor metabolic stability"},
      {"measurement": "reduction of fluorescence intensity", "setting": "Dvl–CXXC5 interaction; 2 μM compound", "value": 43.7, "unit": "%"},
      {"measurement": "IC50", "setting": "Dvl–CXXC5 interaction; read-out: 50% inhibition concentration (IC50) of Dvl–CXXC5 interaction", "value": 24, "unit": "µM"}
    ]}
  ]
}
